Data reported in ChEMBL document CHEMBL1148225, “Discovery and SAR of trisubstituted thiazolidinones as CCR4 antagonists” (Bioorg Med Chem Lett, 2004).
Values joined by “and” are separate entries in the source; they are usually repeats but may differ in a detail not shown here. Equal values may be shown once.

Assays:
[1] = biological target: T1, C-C chemokine receptor type 4 (Homo sapiens) (UniProt P51679); assay: Dose required to inhibit TARC-stimulated chemotaxis in CCR4+ Th2 cell lines derived from primary human T-cells; type: functional, cell-based
T1 sequence (whole entry): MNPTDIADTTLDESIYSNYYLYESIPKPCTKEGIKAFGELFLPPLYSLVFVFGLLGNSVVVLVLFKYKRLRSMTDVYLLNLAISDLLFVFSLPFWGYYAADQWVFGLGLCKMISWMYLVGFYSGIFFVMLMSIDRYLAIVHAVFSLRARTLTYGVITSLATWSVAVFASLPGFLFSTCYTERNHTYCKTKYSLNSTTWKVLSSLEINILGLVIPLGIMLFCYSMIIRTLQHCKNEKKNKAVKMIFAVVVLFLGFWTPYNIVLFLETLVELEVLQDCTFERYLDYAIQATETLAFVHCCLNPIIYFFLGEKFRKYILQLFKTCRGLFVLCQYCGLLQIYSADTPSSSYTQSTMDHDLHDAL

[2] = biological target: T2, C-C chemokine receptor type 4 (Homo sapiens, UniProt P51679); assay: Inhibition of [125I]MDC binding to recombinant human C-C chemokine receptor type 4 (CCR4) expressed in murine pre-B cells; type: cell-based
T2 sequence (P51679 whole entry): T1 sequence (whole entry)

[3] = biological target: T2, C-C chemokine receptor type 4; assay: Inhibitory activity against [125I]MDC binding to human Chemokine receptor type 4 expressed in murine pre-B cells; type: cell-based

Compound	ED50 [1]	IC50 [2]	IC50 [3]
O=C(C[C@H]1S[C@H](c2ccc(Cl)cc2Cl)N(CC(=O)NCCCN2CCOCC2)C1=O)NCc1ccco1	–	7 µM	–
O=C(CN1C(=O)[C@@H](CC(=O)NC2CCCCC2)S[C@@H]1c1ccc(Cl)cc1Cl)NCCCN1CCOCC1	–	7 µM	–
O=C(C[C@H]1S[C@H](c2ccc(Cl)cc2Cl)N(CC(=O)NCCCN2CCOCC2)C1=O)NCc1ccc(Cl)cc1Cl (stereo in doubt; 72)	–	3 µM	–
CN(C)CCCN1C(=O)[C@@H](CC(=O)NCc2cccc3ccccc23)S[C@@H]1c1ccc(Cl)cc1Cl	–	5.6 µM	–
C[C@@H](NC(=O)C[C@H]1S[C@H](c2ccc(Cl)cc2Cl)N(CC(=O)NCCCN2CCOCC2)C1=O)c1cccc2ccccc12	–	0.25 µM	–
O=C(C[C@H]1S[C@H](c2ccc(Cl)cc2Cl)N(CCCCN2CCOCC2)C1=O)NCc1cccc2ccccc12	–	18 µM	–
O=C(CC1SC(c2ccc(Cl)cc2)N(CC(=O)NCCCN2CCOCC2)C1=O)NCc1cccc2ccccc12 (stereo not given)	–	2.4 µM and 0.83 µM	–
O=C(C[C@H]1S[C@H](c2ccoc2)N(CC(=O)NCCCN2CCOCC2)C1=O)NCc1cccc2ccccc12	–	100 µM	–
CN1CCC(NC(=O)CN2C(=O)[C@@H](CC(=O)NCc3cccc4ccccc34)S[C@@H]2c2ccc(Cl)cc2Cl)CC1	–	8 µM	–
Cc1ccccc1CNC(=O)C[C@H]1S[C@H](c2ccc(Cl)cc2Cl)N(CC(=O)NCCCN2CCOCC2)C1=O	–	11 µM	–
O=C(C[C@H]1S[C@H](c2ccc(Cl)cc2Cl)N(CC(=O)NCCCN2CCOCC2)C1=O)NCc1ccc2[nH]ccc2c1	–	1 µM	–
CN(C)CCCNC(=O)CN1C(=O)[C@@H](CC(=O)NCc2cccc3ccccc23)S[C@@H]1c1ccc(Cl)cc1Cl	–	0.36 µM	–
CC(C)CCNC(=O)C[C@H]1S[C@H](c2ccc(Cl)cc2Cl)N(CC(=O)NCCCN2CCOCC2)C1=O	–	19 µM	–

Further lines, results first:

ED50 [1]	IC50 [2]	IC50 [3]	Compound
0.3 µM	0.11 µM	–	C[C@@H](NC(=O)C[C@H]1S[C@H](c2ccc(Cl)cc2Cl)N(CC(=O)NCCCN2CCCCC2)C1=O)c1cccc2ccccc12
–	–	> 100 µM	O=C(C[C@H]1S[C@H](c2ccc(C(F)(F)F)cc2C(F)(F)F)N(CC(=O)NCCCN2CCOCC2)C1=O)NCc1cccc2ccccc12
–	34 µM	–	O=C(C[C@H]1S[C@H](c2ccncc2)N(CC(=O)NCCCN2CCOCC2)C1=O)NCc1cccc2ccccc12
–	1.3 µM	–	O=C(C[C@H]1S[C@H](c2ccc(Cl)cc2Cl)N(CC(=O)NCCCN2CCOCC2)C1=O)NCc1cccc(-c2ccccc2)c1
–	2.9 µM	–	O=C(CN1C(=O)[C@@H](CC(=O)N[C@@H]2CCc3ccccc32)S[C@@H]1c1ccc(Cl)cc1Cl)NCCCN1CCOCC1
–	33 µM	–	O=C(C[C@H]1S[C@H](c2cccs2)N(CC(=O)NCCCN2CCOCC2)C1=O)NCc1cccc2ccccc12
